{
  "source": "patent US11464448B2",
  "about": "“Innate metabolic imaging of cellular systems” (Memorial Sloan Kettering Cancer Center, priority 2016, dated 2022)",
  "key": {"[1]": {"test_system": "orthotopic TRAMP-C2 prostate tumors", "assay": "Tumor volume by MRI in orthotopic TRAMP-C2 prostate model during iron chelation therapy", "format": "in vivo, C57BL/6 mice", "settings": "150 mg/kg, 5 days/week oral gavage; long dose duration (12 weeks); syngeneic hosts; n=10, p<0.001", "source_text": "(§1) Chelation of iron(III) has been proposed as a cancer treatment that causes reductions in tumor growth, presumably by reducing bioavailability of iron(III) to the cancer cells. However, no studies have addressed the possibility that chelation modulates TAM infiltration contributing to these anti-tumor effects. In order to investigate anti-tumor effects of iron chelation, FeMRI is used, as described herein, to monitor tumor growth in two mouse models. The faster growing MycCaP model and the slower growing TRAMP-C2 model were studied and contrasted to evaluate the effect of dose duration. Immune-competent, syngeneic murine FVB/N and C57BL/6 hosts underwent orthotopic prostatic injections of 5×10^4 cells (MycCaP and TRAMP-C2, respectively), and thereafter received either sham (H2O) or DFP (150 mg/kg, 5 days/week) by oral gavage until average primary tumor burden exceeded 1 cm^3 (determined by MM) in the treated group. […] At long dose durations (12 weeks) there was no growth of TRAMP-C2 orthotopic tumors implanted in syngeneic hosts (FIG. 3A, n=10, *p<0.001). […] (FIG. 3D, n=10, *p<0.05). […] Further, the ability to monitor TAM dynamics serially using FeMRI represents a technique that has translational use, bypassing the necessity for using invasive biopsy to obtain similar measures of stromal response to therapy."}, "[2]": {"test_system": "orthotopic MycCaP prostate tumors", "assay": "Tumor volume by MRI in orthotopic MycCaP prostate model during iron chelation therapy", "format": "in vivo, FVB/N mice", "settings": "150 mg/kg, 5 days/week oral gavage; two weeks of gavage beginning one-week post-implantation at 100 mm^3; vs sham (H2O); n=10, p<0.05", "source_text": "as §1"}, "[3]": {"test_system": "high-iron(III)+ CD68+ TAMs in MycCaP tumors", "assay": "Whole slice histology (Prussian Blue iron(III), CD68) of TAM infiltration in MycCaP tumors", "format": "in vivo, FVB/N mice", "source_text": "In order to further quantify these low- and high-[iron(III)] sub-populations, quantitative histology was used. […] In low-iron(III)^+ regions, prostate cancer cells were found sparsely studded with ferritin particles less than 1 μm^2 (at an approximate density of 1000 ferritin particles/field; no CD68^+ macrophages were observed (FIG. 2F, 2G n=18 fields, n=6 mice). In high-iron(III)^+ regions CD68^+ TAMs were found bearing dense hemosiderin deposits in groups of approximately 24 macrophages/TAM cluster (FIG. 2F, 2G, n=18 fields, n=6 mice). With these histological findings, it was possible to estimate the per-pixel TAM number in high-[iron(III)] MRI clusters at approximately 6 macrophages/pixel. To quantify the extent of infiltration of these TAM clusters, an image-processing algorithm was developed in-house with Matlab and ImageJ. […] Immune-competent, syngeneic murine FVB/N and C57BL/6 hosts underwent orthotopic prostatic injections of 5×10^4 cells (MycCaP and TRAMP-C2, respectively), and thereafter received either sham (H2O) or DFP (150 mg/kg, 5 days/week) by oral gavage until average primary tumor burden exceeded 1 cm^3 (determined by MM) in the treated group. […]"}, "[4]": {"test_system": "high-[iron(III)] TAM clusters in MycCaP tumors", "assay": "FeMRI measurement of high-[iron(III)] TAM clusters in MycCaP tumors", "format": "in vivo, FVB/N mice", "experimental": "TAM clusters was measured by FeMRI at each week of treatment as a function of percent infiltration in MycCaP tumors. […] These low-[iron(III)] and high-[iron(III)] populations were mapped by thresholding the tumor Fe[(III)] distribution in these ranges on the FeMRI. The low-[iron(III)] map consisted of dense pixel clusters distributed throughout the tumor, while the high-[iron(III)] map contained sparse clusters with average cluster size of approximately 4 MRI pixel^2≈0.05 mm^2 primarily at the outer tumor margins (n=10 mice). To quantify the extent of infiltration of these TAM clusters, an image-processing algorithm was developed in-house with Matlab and ImageJ. This tool is based on concentric rake sampling that identifies […] CD68^+ or high-[iron(III)] colonies and maps them as a function of % infiltration into the tumor (inset FIG. 2J, […] outer edge, 100% tumor center) for arbitrarily sized histological (FIG. 2J, left […]) regions of interest. […] Immune-competent, syngeneic murine FVB/N and C57BL/6 hosts underwent orthotopic prostatic injections of 5×10^4 cells (MycCaP and TRAMP-C2, respectively), and thereafter received either sham (H2O) or DFP (150 mg/kg, 5 days/week) by oral gavage until average primary tumor burden exceeded 1 cm^3 (determined by MM) in the treated group. […]"}},
  "data": [
    {"smiles": "Cc1c(O)c(=O)ccn1C", "note": "[DFP, deferiprone]", "values": [
      {"measurement": "tumor growth", "setting": "[1]", "result": "no growth"},
      {"measurement": "smaller tumor volumes by the endpoint of the study", "setting": "[2]", "result": 40, "unit": "%"},
      {"measurement": "histological TAM infiltration profile", "setting": "[3]; MycCaP tumor at week 3 of treatment, vs untreated group, p<0.05", "result": "less TAMs than the untreated group"},
      {"measurement": "high-iron(III)+ and CD68+ positive cells (histological analysis)", "setting": "[3]; MycCaP tumors, 150 mg/kg oral gavage, data not shown", "result": "reduced"},
      {"measurement": "rates of TAM infiltration", "setting": "[4]; derived from changes of FeMRI infiltration profiles over time, n=10, p<0.05", "result": "reduced"},
      {"measurement": "FeMRI measurements of TAMs", "setting": "[4]; over the full course of treatment", "result": "showed reductions"}
    ]}
  ]
}
